Reference: patent US10745401B2, “Condensed lactam derivative” (Sumitomo Dainippon Pharma Co., Ltd., priority 2018, dated 2020)

Experiments:
human 5-HT1A receptor [1] = biological target: T1, human 5-HT1A receptor (Homo sapiens (Human), UniProt P08908); test: Test 1: binding activity for human 5-HT1A receptor ([3H]8-OH-DPAT, CHO cell membrane fraction)
Outline: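 Membranes incubated with [3H]8-OH-DPAT and compound for 60 min at room temperature, then filtered on polyethylenimine-coated glass-fibre plates and counted by liquid scintillation. IC50 from Hill analysis; Ki = IC50/(1+S/Kd), Kd from saturation binding on the same membranes.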

[2] = Test 4: metabolic stability test in human hepatic microsome; type: in vitro ADME; conditions: 0.1 mg/mL microsome, 0.1 μmol/L compound, 37° C., 30 minutes
Outline: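 LC-MS quantified remaining parent after 30 min, 37° C, in pH 7.4 25 mmol/L phosphate containing 0.1 mg/mL human hepatic microsomes, 3.2 mmol/L NADPH and 0.1 μmol/L test compound. Value given as −LN(residual ratio)/30/0.1, mL/min/mg protein.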

human 5-HT1A receptor [3] = biological target: T1, human 5-HT1A receptor; test: Test 2: agonist activity for human 5-HT1A receptor ([35S]GTPγS binding); type: biochemical; conditions: for EC50: [35S]GTPγS binding, concentration at which half the activity of Emax was obtained; for Emax at 10 µM: agonist activity in the presence of 10 μM of compound, relative to 100 μmol/L 5-HT
Outline: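 [35S]GTPγS binding read-out: after 60 min at room temperature with test compound in GDP buffer, human 5-HT1A receptor CHO membranes were vacuum-filtered and retained radioactivity scintillation-counted. Agonist activity calculated by formula.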

human 5-HT2A receptor [4] = biological target: T2, human 5-HT2A receptor (Homo sapiens (Human), UniProt P28223); test: Test 1: binding activity for human 5-HT2A receptor ([3H]Ketanserin, CHO cell membrane fraction)
Method: Test 1: Evaluation of Binding Activity for Human 5-HT1A Receptor, Human 5-HT2A Receptor, and Human D2 Receptor
Binding affinity of the present compound for human 5-HT1A receptor, human 5-HT2A receptor, and human D2 receptor was measured by the following procedures.
Each mixture was incubated at room temperature for 60 minutes. Then, the mixture was added quickly on a glassfiber filter plate (Multiscreen FB, Millipore, Inc.) coated with 0.3% aqueous polyethylenimine, and vacuum-filtered. Radioactivity remaining on the filter was measured with a liquid scintillation counter (PerkinElmer, Inc.). Binding inhibition rate was calculated from the following formula.
Ki of each compound was calculated from the following formula. Binding inhibition constant (Ki)=IC50/(1+S/Kd) wherein S is concentration of ligand; Kd is a binding dissociation constant of ligand to membrane, which is calculated from a saturated binding experiment conducted with the same cell membrane. A small Ki value means strong binding ability to a receptor.

human 5-HT2A receptor [5] = biological target: T2, human 5-HT2A receptor; test: Test 3: antagonist activity for human 5-HT2A receptor (aequorin luminescence, CHO-K1 cells); type: cell-based; conditions: for IC50: aequorin luminescence, CHO-K1 cells, 1 nmol/L 5-HT
Method: Test 3: Evaluation of Antagonist Activity for Human 5-HT2A Receptor
Aequorin, Gα16 protein, and each receptor were transiently expressed in CHO-K1 cells (Chinese hamster ovary). […] Each compound dissolved in DMSO was added thereto, and changes in luminescence were measured by FDSS/μCELL functional drug screening system (Hamamatsu Photonics K.K.). Antagonist activity was calculated from the following formula. Antagonist activity (%)=100×{(Luminescence of well in the presence of 1 nmol/L 5-HT−Luminescence of well containing solvent)−(Luminescence of well in the presence of test compound and 1 nmol/L 5-HT−Luminescence of well containing solvent)}/(Luminescence of well in the presence of 1 nmol/L 5-HT−Luminescence of well containing solvent)

human D2 receptor = human D2 receptor (Homo sapiens (Human), UniProt P14416); test: Test 1: binding activity for human D2 receptor ([3H]Spiperone, CHO cell membrane fraction); conditions: for Ki: human D2 receptor, [3H]Spiperone; for D2 Ki/5-HT1A Ki / D2 Ki/5-HT2A Ki: selectivity ratio
Outline: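 Compound displacement of [3H]ketanserin at 5-HT2A or [3H]spiperone at D2 was measured in CHO membrane fractions after 60 min at room temperature, with filtration and scintillation counting. IC50 was converted to Ki by Cheng–Prusoff using ligand concentration and Kd from saturation binding.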

hERG channel = hERG channel (Homo sapiens (Human), UniProt Q12809); test: Test 6-1: inhibitory activity for hERG channel (auto patch clamp, Qpatch); type: cell-based; conditions: whole cell auto patch clamp, hERG-CHO cells; read-out: hERG inhibition IC50
Outline: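 Whole-cell patch clamp on an automated system using CHO cells stably expressing human hERG (IKr); 15 s pulse interval. Four increasing compound concentrations applied cumulatively; mean peak tail current from last 3 stimulations per concentration used. IC50 from inhibition versus pre-compound current, fitted by Hill equation.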

Chain of hERG channel (Q12809 whole entry): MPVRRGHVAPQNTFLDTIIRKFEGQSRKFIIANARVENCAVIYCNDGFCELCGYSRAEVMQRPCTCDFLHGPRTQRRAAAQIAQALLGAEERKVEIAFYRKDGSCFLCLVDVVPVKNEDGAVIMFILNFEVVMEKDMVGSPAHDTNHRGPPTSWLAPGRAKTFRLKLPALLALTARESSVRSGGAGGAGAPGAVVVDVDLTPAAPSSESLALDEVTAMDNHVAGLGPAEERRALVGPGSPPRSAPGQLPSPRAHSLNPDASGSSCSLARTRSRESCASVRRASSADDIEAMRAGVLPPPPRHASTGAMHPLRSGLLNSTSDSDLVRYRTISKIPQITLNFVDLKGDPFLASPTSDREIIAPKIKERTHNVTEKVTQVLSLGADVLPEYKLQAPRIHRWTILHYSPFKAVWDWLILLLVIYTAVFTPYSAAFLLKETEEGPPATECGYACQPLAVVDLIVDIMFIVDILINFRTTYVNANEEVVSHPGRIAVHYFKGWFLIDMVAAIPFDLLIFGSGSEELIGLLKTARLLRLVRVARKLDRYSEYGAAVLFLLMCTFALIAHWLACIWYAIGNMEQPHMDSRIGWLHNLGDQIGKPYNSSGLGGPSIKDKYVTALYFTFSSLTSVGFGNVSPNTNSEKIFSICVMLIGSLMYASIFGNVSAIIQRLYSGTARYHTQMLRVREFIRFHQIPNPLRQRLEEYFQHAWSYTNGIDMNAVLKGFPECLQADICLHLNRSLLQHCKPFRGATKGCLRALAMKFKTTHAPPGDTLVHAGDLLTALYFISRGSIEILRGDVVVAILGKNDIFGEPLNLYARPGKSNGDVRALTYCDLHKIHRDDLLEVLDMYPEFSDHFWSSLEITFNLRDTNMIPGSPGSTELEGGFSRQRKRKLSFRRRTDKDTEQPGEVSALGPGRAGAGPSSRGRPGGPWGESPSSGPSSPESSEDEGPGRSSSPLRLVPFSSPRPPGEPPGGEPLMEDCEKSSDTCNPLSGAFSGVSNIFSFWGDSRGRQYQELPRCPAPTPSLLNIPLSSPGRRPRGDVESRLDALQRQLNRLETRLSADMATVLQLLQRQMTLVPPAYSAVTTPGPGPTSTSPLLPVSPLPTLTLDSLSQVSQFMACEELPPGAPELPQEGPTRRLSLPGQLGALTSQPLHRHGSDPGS
Chain of human D2 receptor (P14416 whole entry): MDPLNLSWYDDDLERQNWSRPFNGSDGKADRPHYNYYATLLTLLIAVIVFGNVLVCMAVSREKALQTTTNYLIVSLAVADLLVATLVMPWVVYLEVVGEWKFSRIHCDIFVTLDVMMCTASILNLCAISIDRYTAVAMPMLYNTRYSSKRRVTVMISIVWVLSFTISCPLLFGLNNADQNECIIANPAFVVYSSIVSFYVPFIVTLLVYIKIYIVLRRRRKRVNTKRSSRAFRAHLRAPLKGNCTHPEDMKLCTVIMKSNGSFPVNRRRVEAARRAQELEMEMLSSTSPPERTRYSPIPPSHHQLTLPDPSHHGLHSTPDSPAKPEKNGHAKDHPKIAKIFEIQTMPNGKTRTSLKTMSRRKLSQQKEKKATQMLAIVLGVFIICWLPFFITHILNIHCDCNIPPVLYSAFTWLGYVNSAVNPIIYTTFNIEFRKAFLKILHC
T1 sequence (P08908 whole entry): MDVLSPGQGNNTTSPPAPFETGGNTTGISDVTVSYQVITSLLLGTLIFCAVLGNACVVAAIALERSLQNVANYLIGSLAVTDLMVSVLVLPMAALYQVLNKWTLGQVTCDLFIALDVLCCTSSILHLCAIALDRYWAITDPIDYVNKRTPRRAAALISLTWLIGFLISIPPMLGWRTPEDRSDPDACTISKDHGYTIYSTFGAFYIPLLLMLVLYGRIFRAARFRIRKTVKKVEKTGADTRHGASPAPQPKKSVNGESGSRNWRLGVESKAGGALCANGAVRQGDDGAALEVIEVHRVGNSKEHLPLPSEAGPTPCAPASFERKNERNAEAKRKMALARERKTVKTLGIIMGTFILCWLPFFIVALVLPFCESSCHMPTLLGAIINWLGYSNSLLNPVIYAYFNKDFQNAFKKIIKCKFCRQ
T2 sequence (P28223 whole entry): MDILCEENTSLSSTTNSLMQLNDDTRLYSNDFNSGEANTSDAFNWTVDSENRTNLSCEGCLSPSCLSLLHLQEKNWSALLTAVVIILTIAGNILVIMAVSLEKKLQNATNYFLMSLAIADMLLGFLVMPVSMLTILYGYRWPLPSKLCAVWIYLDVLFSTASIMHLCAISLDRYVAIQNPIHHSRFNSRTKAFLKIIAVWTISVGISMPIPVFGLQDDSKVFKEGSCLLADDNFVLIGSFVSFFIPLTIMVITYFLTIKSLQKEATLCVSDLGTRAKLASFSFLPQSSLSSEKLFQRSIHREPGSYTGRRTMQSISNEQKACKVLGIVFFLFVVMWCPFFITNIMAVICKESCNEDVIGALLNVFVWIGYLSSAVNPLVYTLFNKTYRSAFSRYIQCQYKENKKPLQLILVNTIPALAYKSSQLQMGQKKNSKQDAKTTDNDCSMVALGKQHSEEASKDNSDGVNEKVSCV

| SMILES | Ki (human 5-HT1A receptor [1]) [nM] | Metabolic stability in human hepatic microsome [2] [mL/min/mg protein] | EC50 (human 5-HT1A receptor [3]) [nM] | Emax at 10 µM (human 5-HT1A receptor [3]) [%] | Ki (human 5-HT2A receptor [4]) [nM] | IC50 (human 5-HT2A receptor [5]) [nM] | Ki (human D2 receptor) [nM] | D2 Ki/5-HT1A Ki (human D2 receptor) | D2 Ki/5-HT2A Ki (human D2 receptor) | activity at 10 µM (human 5-HT2A receptor [5]; CHO-K1) [%] | IC50 (hERG channel) [nM] |
| --- | --- | --- | --- | --- | --- | --- | --- | --- | --- | --- | --- |
| O=c1c2cncnc2ccn1CCN1CCC(c2noc3ccccc23)CC1 [Example 129] | 51.4 | 0.084 | 370 | 31 | 20 | 61.8 | – | – | – | – | – |
| O=C1c2ncccc2CCN1CCN1CCC(c2noc3c(F)cccc23)CC1 [Example 140] | 168 | – | 2300 | 27 | 118 | 373 | > 10000 | >59.5 | >84.7 | – | – |
| O=C1c2ncccc2CCN1CCN1CCC(c2noc3cccc(F)c23)CC1 [Example 141] | 4.16 | – | 30 | 44 | 173 | 976 | > 10000 | >2405.7 | >57.8 | – | – |
| COc1ccc2onc(C3CCN(CCN4CCc5cccnc5C4=O)CC3)c2c1 [Example 142] | 1.83 | – | 8.8 | 54 | 164 | 3910 | > 10000 | >5452.0 | >61.0 | – | – |
| O=C1c2ncccc2CCN1CCN1CCN(c2noc3ccc(F)cc23)CC1 [Example 147] | 124 | – | 436 | – | 124 | 415 | > 10000 | – | – | – | – |
| O=C1c2ncccc2CCN1CCN1CCC(c2noc3cc(F)c(F)cc23)CC1 [Example 148] | 156 | – | – | – | 43.2 | – | – | – | – | 45 | – |
| COc1ccc2c(C3CCN(CCN4CCc5cccnc5C4=O)CC3)noc2c1 [Example 149] | 184 | – | 719 | 16 | 217 | 267 | > 10000 | >54.3 | >46.1 | – | – |
| Cn1ccc2c1CCCN(CCN1CCN(c3nsc4ccccc34)CC1)C2=O [Example 165] | – | 0.265 | – | 44 | 1.2 | 15.4 | – | – | – | – | 7900 |
| Cc1c2c(nn1C)CCN(CCN1CCN(c3noc4ccccc34)CC1)C2=O [Example 171] | – | <0.05 | – | 56 | 2.6 | 45.9 | – | – | – | – | 6600 |
| O=c1c2cnc(C(F)(F)F)cc2ccn1CCN1CCN(c2noc3ccccc23)CC1 [Example 173] | 38.6 | – | 40.8 | 50 | 22.8 | 184 | > 10000 | >259.1 | >438.0 | – | – |
| Cn1cc2c(n1)CCN(CCN1CCC(c3noc4ccccc34)C1)C2=O (stereo not shown) [Example 174] | 78.1 | – | 193 | 50 | 71.7 | 723 | > 10000 | >128.0 | >139.5 | – | – |
| Cc1ccc2c(n1)C(=O)N(CCN1CCC(c3noc4ccccc34)CC1)CC2 [Example 184] | – | <0.05 | – | 59 | 27 | 95.5 | – | – | – | – | 800 |
| Cc1ncc2c(=O)n(CCN3CCN(c4noc5ccccc45)CC3)ccc2n1 [Example 193, 6-{2-[4-(1,2-Benzoisoxazol-3-yl)piperazin-1-yl]ethyl}-2-methylpyrido[4,3-d]pyrimidin-5(6H)-one] | 387 | – | 756 | 27 | 122 | 143 | > 10000 | >25.8 | >81.7 | – | – |
